In patent US20220409620A1, “REDUCING IMMUNOGENICITY TO PEGLOTICASE” (Horizon Pharma Rheumatology LLC, priority 2016, published 2022):

Tested on: adult patients with uncontrolled gout
Experiment: Serum uric acid (sUA) levels and sUA responder rate, open-label study of pegloticase with MTX (MIRROR OL)
Type: in vivo, human
Conditions: Month 6 sUA Responders
Procedure: The primary objective is to estimate the response rate during Month 6 (Weeks 20, 22, and 24), as measured by the sustained normalization of serum uric acid (SUA) to <6 mg/dL for at least 80% of the time during Month 6 in subjects receiving KXX with MTX.
The primary efficacy outcome endpoint is the sustained normalization of SUA to <6 mg/dL for at least 80% of the time during month 6 (weeks 20, 22, and 24) in subjects receiving KXX with MTX. […] Participants who achieve this endpoint were classified as “responders.” Serum uric acid (SUA) responders may also be defined as participants achieving and maintaining SUA <6 mg/dL for at least 80% of the time during Month 6 (Weeks 20, 22, and 24).
Blood samples may be collected prior to each pegloticase infusion for measurement of SUA levels using the Beckman Coulter AU System Uric Acid procedure. Participants were declared “non-responders” if there were SUA measures >6 mg/dL at 2 consecutive study visits beginning with the week 2 visit. […] This assumption and subsequent discontinuation of pegloticase was consistent with the protocol of large phase III randomized controlled trials and the product label. A formal stopping rule was 2 occasions of SUA levels of greater than 6 mg/dL.
Clinical Chemistry—Blood samples were collected prior to each pegloticase infusion for measurement of SUA levels (primary efficacy parameter) using the Beckman Coulter AU System Uric Acid procedure. In this procedure uric acid is converted to hydrogen peroxide. Hydrogen peroxide reacts with reagent to produce a chromophore which is read bichromatically at 660/800 nm. The amount of dye formed is proportional to the uric acid concentration in the sample.
Serum samples for measurement of SUA levels were collected at the Screening Visit, the Week −4 Visit (prior to the first dose of MTX), and the Week −2 Visit during the MTX Run-in Period; within 48 hours prior to each pegloticase infusion and after the end of each pegloticase infusion prior to discharge from the site during the Pegloticase+IMM Period; at the non-infusion Week 52/End of Study/Early Termination Visits and at the Post Treatment 3 and 6 Month Follow-up Visits. Additional serum samples for SUA levels were collected at optional non-infusion (Frequent Sampling) Visits at Weeks 1 and 7. […] Subjects with SUA level >6 mg/dL at 2 consecutive visits beginning at Week 2 visit discontinued treatment, completed the End of Pegloticase Infusion Visit procedures within 2 weeks and continued the subject visits according to the protocol (without treatment).
Efficacy analyses were performed using the modified intention-to-treat (mITT) population, defined as all enrolled subjects who received ≥1 dose of pegloticase. The proportion of Month 6 responders was summarized, along with a 95% confidence interval for the proportion. The proportion of Month 3 and overall (Months 3 and 6 combined) responders was analyzed similarly.
A subject was declared a non-responder if the subject had SUA level >6 mg/dL at 2 consecutive study visits beginning with the Week 2 Visit. In addition, a subject who withdraws from study treatment for any reason after the first dose of pegloticase in the KXX+MTX Period and prior to Month 6 (for the primary endpoint) or Month 3 (for the secondary endpoint) was considered a non-responder if SUA values were not collected at the planned time points.
Patients were administered oral MTX (15 mg/week) and folate (1 mg/day) 4 weeks prior to the first pegloticase infusion (Day 1) and throughout the pegloticase treatment period. Blood was drawn prior to each infusion to measure sUA level, monitor clinical parameters, and examine for ADA development. All patients followed typical IR prophylaxis protocols (fexofenadine one day before and the morning of each infusion and acetaminophen and IV corticosteroid the morning of each infusion).

pegloticase
−8.41 (5.229) mg/dL: Serum Uric Acid, Change from Baseline, Mean (SD) (Week 38-Pre-Infusion, n=5)
-8.95 mg/dL: Serum Uric Acid, Change from Baseline, Median (Week 26-Pre-Infusion, n=8) | Serum Uric Acid, Change from Baseline, Median (Week 28-Pre-Infusion, n=8) | Serum Uric Acid, Change from Baseline, Median (Week 30-Pre-Infusion, n=8) | Serum Uric Acid, Change from Baseline, Median (Week 32-Post-Infusion, n=8) | Serum Uric Acid, Change from Baseline, Median (Week 32-Pre-Infusion, n=10) | Serum Uric Acid, Change from Baseline, Median (Week 34-Post-Infusion, n=8)
11(100%): sUA <6 mg/dL, n (%) (Week 22-Pre-Infusion, n=11)
8 ( 88.9%): sUA <6 mg/dL, n (%) (Week 36-Pre-Infusion, n=9)
−12.65 (4.031) mg/dL: Serum Uric Acid, Change from Baseline, Mean (SD) (Week 46-Pre-Infusion, n=2)
0.30 (0.000) mg/dL: Serum Uric Acid, Observed, Mean (SD) (Week 14-Pre-Infusion, n=11) | Serum Uric Acid, Observed, Mean (SD) (Week 16-Post-Infusion, n=11) | Serum Uric Acid, Observed, Mean (SD) (Week 16-Pre-Infusion, n=11) | Serum Uric Acid, Observed, Mean (SD) (Week 18-Post-Infusion, n=11) | Serum Uric Acid, Observed, Mean (SD) (Week 18-Pre-Infusion, n=11) | Serum Uric Acid, Observed, Mean (SD) (Week 20-Post-Infusion, n=11) | Serum Uric Acid, Observed, Mean (SD) (Week 20-Pre-Infusion, n=11) | Serum Uric Acid, Observed, Mean (SD) (Week 22-Pre-Infusion, n=11) | Serum Uric Acid, Observed, Mean (SD) (Week 24-Post-Infusion, n=5) | Serum Uric Acid, Observed, Mean (SD) (Week 24-Pre-Infusion, n=11) | Serum Uric Acid, Observed, Mean (SD) (Week 26-Pre-Infusion, n=8) | Serum Uric Acid, Observed, Mean (SD) (Week 28-Pre-Infusion, n=8) | Serum Uric Acid, Observed, Mean (SD) (Week 30-Pre-Infusion, n=8) | Serum Uric Acid, Observed, Mean (SD) (Week 32-Post-Infusion, n=8) | Serum Uric Acid, Observed, Mean (SD) (Week 32-Pre-Infusion, n=10) | Serum Uric Acid, Observed, Mean (SD) (Week 34-Post-Infusion, n=8) | Serum Uric Acid, Observed, Mean (SD) (Week 36-Post-Infusion, n=6) | Serum Uric Acid, Observed, Mean (SD) (Week 40-Pre-Infusion, n=3) | Serum Uric Acid, Observed, Mean (SD) (Week 42-Pre-Infusion, n=3) | Serum Uric Acid, Observed, Mean (SD) (Week 46-Pre-Infusion, n=2)
-8.80 mg/dL: Serum Uric Acid, Change from Baseline, Median (Week 14-Pre-Infusion, n=11) | Serum Uric Acid, Change from Baseline, Median (Week 16-Post-Infusion, n=11) | Serum Uric Acid, Change from Baseline, Median (Week 16-Pre-Infusion, n=11) | Serum Uric Acid, Change from Baseline, Median (Week 18-Post-Infusion, n=11) | Serum Uric Acid, Change from Baseline, Median (Week 18-Pre-Infusion, n=11) | Serum Uric Acid, Change from Baseline, Median (Week 20-Post-Infusion, n=11) | Serum Uric Acid, Change from Baseline, Median (Week 20-Pre-Infusion, n=11) | Serum Uric Acid, Change from Baseline, Median (Week 22-Post-Infusion, n=11) | Serum Uric Acid, Change from Baseline, Median (Week 22-Pre-Infusion, n=11) | Serum Uric Acid, Change from Baseline, Median (Week 24-Pre-Infusion, n=11)
−10.55 (4.625) mg/dL: Serum Uric Acid, Change from Baseline, Mean (SD) (Week 44-Pre-Infusion, n=3)
0.30 mg/dL: Serum Uric Acid, Observed, Median (Week 14-Post-Infusion, n=10) | Serum Uric Acid, Observed, Median (Week 14-Pre-Infusion, n=11) | Serum Uric Acid, Observed, Median (Week 16-Post-Infusion, n=11) | Serum Uric Acid, Observed, Median (Week 16-Pre-Infusion, n=11) | Serum Uric Acid, Observed, Median (Week 18-Post-Infusion, n=11) | Serum Uric Acid, Observed, Median (Week 18-Pre-Infusion, n=11) | Serum Uric Acid, Observed, Median (Week 20-Post-Infusion, n=11) | Serum Uric Acid, Observed, Median (Week 20-Pre-Infusion, n=11) | Serum Uric Acid, Observed, Median (Week 22-Post-Infusion, n=11) | Serum Uric Acid, Observed, Median (Week 22-Pre-Infusion, n=11) | Serum Uric Acid, Observed, Median (Week 24-Post-Infusion, n=5) | Serum Uric Acid, Observed, Median (Week 24-Pre-Infusion, n=11) | Serum Uric Acid, Observed, Median (Week 26-Pre-Infusion, n=8) | Serum Uric Acid, Observed, Median (Week 28-Pre-Infusion, n=8) | Serum Uric Acid, Observed, Median (Week 30-Pre-Infusion, n=8) | Serum Uric Acid, Observed, Median (Week 32-Post-Infusion, n=8) | Serum Uric Acid, Observed, Median (Week 32-Pre-Infusion, n=10) | Serum Uric Acid, Observed, Median (Week 34-Post-Infusion, n=8) | Serum Uric Acid, Observed, Median (Week 34-Pre-Infusion, n=10) | Serum Uric Acid, Observed, Median (Week 36-Post-Infusion, n=6) | Serum Uric Acid, Observed, Median (Week 36-Pre-Infusion, n=9) | Serum Uric Acid, Observed, Median (Week 38-Pre-Infusion, n=5) | Serum Uric Acid, Observed, Median (Week 40-Pre-Infusion, n=3) | Serum Uric Acid, Observed, Median (Week 42-Pre-Infusion, n=3) | Serum Uric Acid, Observed, Median (Week 44-Pre-Infusion, n=3) | Serum Uric Acid, Observed, Median (Week 46-Pre-Infusion, n=2)
10 (100%): sUA <6 mg/dL, n (%) (Week 14-Post-Infusion, n=10) | sUA <6 mg/dL, n (%) (Week 32-Pre-Infusion, n=10) | sUA <6 mg/dL, n (%) (Week 34-Pre-Infusion, n=10)
5 (100%): sUA <6 mg/dL, n (%) (Week 24-Post-Infusion, n=5) | sUA <6 mg/dL, n (%) (Week 38-Pre-Infusion, n=5)
−8.99 (2.961) mg/dL: Serum Uric Acid, Change from Baseline, Mean (SD) (Week 32-Pre-Infusion, n=10)
-9.20 mg/dL: Serum Uric Acid, Change from Baseline, Median (Week 36-Post-Infusion, n=6)
11 (100%): sUA <6 mg/dL, n (%) (Week 14-Pre-Infusion, n=11) | sUA <6 mg/dL, n (%) (Week 16-Post-Infusion, n=11) | sUA <6 mg/dL, n (%) (Week 16-Pre-Infusion, n=11) | sUA <6 mg/dL, n (%) (Week 18-Post-Infusion, n=11) | sUA <6 mg/dL, n (%) (Week 18-Pre-Infusion, n=11) | sUA <6 mg/dL, n (%) (Week 20-Post-Infusion, n=11) | sUA <6 mg/dL, n (%) (Week 20-Pre-Infusion, n=11) | sUA <6 mg/dL, n (%) (Week 22-Post-Infusion, n=11) | sUA <6 mg/dL, n (%) (Week 24-Pre-Infusion, n=11)
1.05 (1.305) mg/dL: Serum Uric Acid, Observed, Mean (SD) (Week 44-Pre-Infusion, n=3)
−8.47 (3.248) mg/dL: Serum Uric Acid, Change from Baseline, Mean (SD) (Week 34-Pre-Infusion, n=10)
−9.18 (4.135) mg/dL: Serum Uric Acid, Change from Baseline, Mean (SD) (Week 24-Post-Infusion, n=5)
−8.97 (2.810) mg/dL: Serum Uric Acid, Change from Baseline, Mean (SD) (Week 14-Pre-Infusion, n=11) | Serum Uric Acid, Change from Baseline, Mean (SD) (Week 16-Post-Infusion, n=11) | Serum Uric Acid, Change from Baseline, Mean (SD) (Week 16-Pre-Infusion, n=11) | Serum Uric Acid, Change from Baseline, Mean (SD) (Week 18-Post-Infusion, n=11) | Serum Uric Acid, Change from Baseline, Mean (SD) (Week 18-Pre-Infusion, n=11) | Serum Uric Acid, Change from Baseline, Mean (SD) (Week 20-Post-Infusion, n=11) | Serum Uric Acid, Change from Baseline, Mean (SD) (Week 20-Pre-Infusion, n=11) | Serum Uric Acid, Change from Baseline, Mean (SD) (Week 22-Pre-Infusion, n=11) | Serum Uric Acid, Change from Baseline, Mean (SD) (Week 24-Pre-Infusion, n=11)
-12.65 mg/dL: Serum Uric Acid, Change from Baseline, Median (Week 46-Pre-Infusion, n=2)
0.93 (1.583) mg/dL: Serum Uric Acid, Observed, Mean (SD) (Week 38-Pre-Infusion, n=5)
−9.38 (3.799) mg/dL: Serum Uric Acid, Change from Baseline, Mean (SD) (Week 36-Post-Infusion, n=6)
1.58 (2.425) mg/dL: Serum Uric Acid, Observed, Mean (SD) (Week 36-Pre-Infusion, n=9)
0.82 (1.046) mg/dL: Serum Uric Acid, Observed, Mean (SD) (Week 34-Pre-Infusion, n=10)
3 (100%): sUA <6 mg/dL, n (%) (Week 40-Pre-Infusion, n=3) | sUA <6 mg/dL, n (%) (Week 42-Pre-Infusion, n=3) | sUA <6 mg/dL, n (%) (Week 44-Pre-Infusion, n=3)
-7.95 mg/dL: Serum Uric Acid, Change from Baseline, Median (Week 34-Pre-Infusion, n=10)
8 (100%): sUA <6 mg/dL, n (%) (Week 26-Pre-Infusion, n=8) | sUA <6 mg/dL, n (%) (Week 28-Pre-Infusion, n=8) | sUA <6 mg/dL, n (%) (Week 30-Pre-Infusion, n=8) | sUA <6 mg/dL, n (%) (Week 32-Post-Infusion, n=8) | sUA <6 mg/dL, n (%) (Week 34-Post-Infusion, n=8)
−9.11 (3.293) mg/dL: Serum Uric Acid, Change from Baseline, Mean (SD) (Week 26-Pre-Infusion, n=8) | Serum Uric Acid, Change from Baseline, Mean (SD) (Week 28-Pre-Infusion, n=8) | Serum Uric Acid, Change from Baseline, Mean (SD) (Week 30-Pre-Infusion, n=8) | Serum Uric Acid, Change from Baseline, Mean (SD) (Week 32-Post-Infusion, n=8) | Serum Uric Acid, Change from Baseline, Mean (SD) (Week 34-Post-Infusion, n=8)
−7.90 (4.094) mg/dL: Serum Uric Acid, Change from Baseline, Mean (SD) (Week 36-Pre-Infusion, n=9)
-9.30 mg/dL: Serum Uric Acid, Change from Baseline, Median (Week 24-Post-Infusion, n=5)
2 (100%): sUA <6 mg/dL, n (%) (Week 46-Pre-Infusion, n=2)
-8.60 mg/dL: Serum Uric Acid, Change from Baseline, Median (Week 36-Pre-Infusion, n=9) | Serum Uric Acid, Change from Baseline, Median (Week 38-Pre-Infusion, n=5)
-9.80 mg/dL: Serum Uric Acid, Change from Baseline, Median (Week 40-Pre-Infusion, n=3) | Serum Uric Acid, Change from Baseline, Median (Week 42-Pre-Infusion, n=3) | Serum Uric Acid, Change from Baseline, Median (Week 44-Pre-Infusion, n=3)
−11.30 (3.686) mg/dL: Serum Uric Acid, Change from Baseline, Mean (SD) (Week 40-Pre-Infusion, n=3) | Serum Uric Acid, Change from Baseline, Mean (SD) (Week 42-Pre-Infusion, n=3)
6 (100%): sUA <6 mg/dL, n (%) (Week 36-Post-Infusion, n=6)
